Test results as given in ChEMBL document CHEMBL5346923, “Novel pyridinium cationic pleuromutilin analogues overcoming bacterial multidrug resistance” (Eur J Med Chem, 2023).

Key:
Type in all cases: functional
[1] = test system: Staphylococcus aureus; assay: Antibacterial activity against Staphylococcus aureus ATCC 29213 assessed as inhibition of bacterial growth measured after 24 hrs by MH broth based assay
[2] = test system: Staphylococcus epidermidis; assay: Antibacterial activity against methicillin-resistant Staphylococcus epidermidis ATCC 51625 assessed as inhibition of bacterial growth measured after 24 hrs by MH broth based assay
[3] = test system: Escherichia coli; assay: Antibacterial activity against Escherichia coli ATCC 25922 assessed as inhibition of bacterial growth measured after 24 hrs by MH broth based assay
[4] = test system: Escherichia coli; assay: Antibacterial activity against Escherichia coli MG1655 assessed as inhibition of bacterial growth measured after 24 hrs by MH broth based assay
[5] = test system: Klebsiella pneumoniae; assay: Antibacterial activity against Klebsiella pneumonia CMCC (B) 46117 assessed as inhibition of bacterial growth measured after 24 hrs by MH broth based assay
[6] = test system: Streptococcus pneumoniae; assay: Antibacterial activity against Streptococcus pneumoniae ATCC 49619 assessed as inhibition of bacterial growth measured after 24 hrs by MH broth based assay
[7] = test system: Staphylococcus aureus; assay: Antibacterial activity against methicillin-resistant Staphylococcus aureus ATCC 43300 assessed as inhibition of bacterial growth measured after 24 hrs by MH broth based assay
[8] = test system: Enterococcus; assay: Antibacterial activity against vancomycin-resistant Enterococcus ATCC 700221 assessed as inhibition of bacterial growth measured after 24 hrs by MH broth based assay
[9] = test system: Escherichia coli; assay: Antibacterial activity against Escherichia coli MG1655 harbouring acrB gene assessed as inhibition of bacterial growth measured after 24 hrs by MH broth based assay
[10] = test system: Proteus; assay: Antibacterial activity against Proteus CMCC (B) 49027 assessed as inhibition of bacterial growth measured after 24 hrs by MH broth based assay
[11] = test system: Bacillus subtilis; assay: Antibacterial activity against Bacillus subtilis ATCC 6633 assessed as inhibition of bacterial growth measured after 24 hrs by MH broth based assay

| Structure (SMILES) | MIC [1] | MIC [2] | MIC [3] | MIC [4] | MIC [5] | MIC [6] | MIC [7] | MIC [8] | MIC [9] | MIC [10] | MIC [11] |
| --- | --- | --- | --- | --- | --- | --- | --- | --- | --- | --- | --- |
| C=C[C@]1(C)C[C@@H](OC(=O)CSc2cc[n+](CC(=O)N(Cc3ccccc3)Cc3ccccc3)cc2)[C@]2(C)[C@H](C)CC[C@]3(CCC(=O)[C@H]32)[C@@H](C)[C@@H]1O.[I-] | 0.25 µg/mL | 0.063 µg/mL | 64 µg/mL | 64 µg/mL | 32 µg/mL | < 0.031 µg/mL | 0.25 µg/mL | 64 µg/mL | 4 µg/mL | > 64 µg/mL | 16 µg/mL |
| C=C[C@]1(C)C[C@@H](OC(=O)CSc2cc[n+](CC3CCCO3)cc2)[C@]2(C)[C@H](C)CC[C@]3(CCC(=O)[C@H]32)[C@@H](C)[C@@H]1O.[I-] (some centres undefined) | 1 µg/mL | 0.25 µg/mL | 64 µg/mL | 64 µg/mL | 64 µg/mL | 0.125 µg/mL | 1 µg/mL | 64 µg/mL | 2 µg/mL | > 64 µg/mL | 64 µg/mL |
| C=C[C@]1(C)C[C@@H](OC(=O)CSc2cc[n+](Cc3ccc(C(=O)OC(C)(C)C)cc3)cc2)[C@]2(C)[C@H](C)CC[C@]3(CCC(=O)[C@H]32)[C@@H](C)[C@@H]1O.[I-] | 1 µg/mL | 0.5 µg/mL | 64 µg/mL | 64 µg/mL | 64 µg/mL | 0.25 µg/mL | 1 µg/mL | 64 µg/mL | 4 µg/mL | > 64 µg/mL | 64 µg/mL |
| C=C[C@]1(C)C[C@@H](OC(=O)CSc2cc[n+](CCCCCCCCCC(=O)O)cc2)[C@]2(C)[C@H](C)CC[C@]3(CCC(=O)[C@H]32)[C@@H](C)[C@@H]1O.[I-] | 4 µg/mL | 2 µg/mL | > 64 µg/mL | > 64 µg/mL | > 64 µg/mL | 1 µg/mL | 4 µg/mL | 64 µg/mL | 32 µg/mL | > 64 µg/mL | > 64 µg/mL |
| C=C[C@]1(C)C[C@@H](OC(=O)CSc2cc[n+](CC(C)C)cc2)[C@]2(C)[C@H](C)CC[C@]3(CCC(=O)[C@H]32)[C@@H](C)[C@@H]1O.[I-] | 0.5 µg/mL | 0.5 µg/mL | 64 µg/mL | 64 µg/mL | 64 µg/mL | 0.25 µg/mL | 0.5 µg/mL | 64 µg/mL | 2 µg/mL | > 64 µg/mL | 64 µg/mL |
| C=C[C@]1(C)C[C@@H](OC(=O)CSc2cc[n+](CC(=O)NC3CCCC3)cc2)[C@]2(C)[C@H](C)CC[C@]3(CCC(=O)[C@H]32)[C@@H](C)[C@@H]1O.[I-] | 4 µg/mL | 1 µg/mL | 64 µg/mL | 64 µg/mL | 64 µg/mL | 1 µg/mL | 4 µg/mL | 64 µg/mL | 8 µg/mL | > 64 µg/mL | > 64 µg/mL |
| C=C[C@]1(C)C[C@@H](OC(=O)CSc2cc[n+](CC(=O)NCc3ccccc3C)cc2)[C@]2(C)[C@H](C)CC[C@]3(CCC(=O)[C@H]32)[C@@H](C)[C@@H]1O.[I-] | 0.5 µg/mL | 1 µg/mL | 64 µg/mL | 32 µg/mL | 8 µg/mL | 0.5 µg/mL | 0.5 µg/mL | 64 µg/mL | 1 µg/mL | 64 µg/mL | 64 µg/mL |
| C=C[C@]1(C)C[C@@H](OC(=O)CSc2cc[n+](Cc3ccc(-c4ccccc4C#N)cc3)cc2)[C@]2(C)[C@H](C)CC[C@]3(CCC(=O)[C@H]32)[C@@H](C)[C@@H]1O.[I-] | 1 µg/mL | 0.125 µg/mL | 64 µg/mL | 64 µg/mL | 32 µg/mL | < 0.031 µg/mL | 1 µg/mL | 32 µg/mL | 8 µg/mL | > 64 µg/mL | 32 µg/mL |
| C#CCC[n+]1ccc(SCC(=O)O[C@@H]2C[C@@](C)(C=C)[C@@H](O)[C@H](C)[C@]34CCC(=O)[C@H]3[C@@]2(C)[C@H](C)CC4)cc1.[I-] | 0.5 µg/mL | 0.25 µg/mL | 64 µg/mL | 64 µg/mL | 64 µg/mL | 0.125 µg/mL | 0.5 µg/mL | 64 µg/mL | 1 µg/mL | > 64 µg/mL | 64 µg/mL |
